Measurements reported in patent US9161894B2, “Use of N-(4-methoxyphenyl)-1-phenyl-1H-pyrazol-3-amine and related compounds” (NPHARMAKON, LLC, priority 2011, dated 2015).
Several values for one entry are separate records, joined by “and”; a condition that tells them apart may be missing. Equal values may be shown once. Read-outs that look alike come from different tables or passages of the source.

How the values were obtained:
[1] = cited from earlier work
[2] = system: PGS in intact RBL-1 cells; conditions: cited from earlier work
[3] = molecular target: T1, 5-lipoxygenase (5-LO) (Homo sapiens, UniProt P09917); conditions: in vitro assays; cited from earlier work
T1 sequence (P09917 1-674): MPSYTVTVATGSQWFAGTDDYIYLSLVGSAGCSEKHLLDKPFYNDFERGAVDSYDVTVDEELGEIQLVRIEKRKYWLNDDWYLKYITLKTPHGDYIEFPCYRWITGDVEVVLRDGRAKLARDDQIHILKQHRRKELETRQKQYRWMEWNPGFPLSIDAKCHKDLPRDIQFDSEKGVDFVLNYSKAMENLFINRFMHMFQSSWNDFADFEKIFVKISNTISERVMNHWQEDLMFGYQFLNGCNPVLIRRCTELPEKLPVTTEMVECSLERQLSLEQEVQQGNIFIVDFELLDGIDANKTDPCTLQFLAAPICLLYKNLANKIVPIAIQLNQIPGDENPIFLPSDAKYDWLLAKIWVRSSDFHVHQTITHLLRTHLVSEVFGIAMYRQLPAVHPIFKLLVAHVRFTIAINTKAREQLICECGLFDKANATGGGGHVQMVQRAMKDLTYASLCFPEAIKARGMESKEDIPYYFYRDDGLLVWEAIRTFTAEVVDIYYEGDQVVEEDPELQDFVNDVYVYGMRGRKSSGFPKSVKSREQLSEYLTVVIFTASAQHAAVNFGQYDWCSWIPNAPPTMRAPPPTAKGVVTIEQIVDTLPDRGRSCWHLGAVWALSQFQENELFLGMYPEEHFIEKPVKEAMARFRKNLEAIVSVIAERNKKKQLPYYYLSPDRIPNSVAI

[4] = molecular target: T2, Kit (human) (Homo sapiens, UniProt P10721); test: Millipore KinaseProfiler radiometric-based filtration binding assay of Kit kinase; conditions: biochemical assay, read-out: IC50 of Kit kinase inhibition (converted)
T2 construct: purchased EMD Millipore Corporation (KinaseProfiler service)
T2 sequence (P10721 26-976): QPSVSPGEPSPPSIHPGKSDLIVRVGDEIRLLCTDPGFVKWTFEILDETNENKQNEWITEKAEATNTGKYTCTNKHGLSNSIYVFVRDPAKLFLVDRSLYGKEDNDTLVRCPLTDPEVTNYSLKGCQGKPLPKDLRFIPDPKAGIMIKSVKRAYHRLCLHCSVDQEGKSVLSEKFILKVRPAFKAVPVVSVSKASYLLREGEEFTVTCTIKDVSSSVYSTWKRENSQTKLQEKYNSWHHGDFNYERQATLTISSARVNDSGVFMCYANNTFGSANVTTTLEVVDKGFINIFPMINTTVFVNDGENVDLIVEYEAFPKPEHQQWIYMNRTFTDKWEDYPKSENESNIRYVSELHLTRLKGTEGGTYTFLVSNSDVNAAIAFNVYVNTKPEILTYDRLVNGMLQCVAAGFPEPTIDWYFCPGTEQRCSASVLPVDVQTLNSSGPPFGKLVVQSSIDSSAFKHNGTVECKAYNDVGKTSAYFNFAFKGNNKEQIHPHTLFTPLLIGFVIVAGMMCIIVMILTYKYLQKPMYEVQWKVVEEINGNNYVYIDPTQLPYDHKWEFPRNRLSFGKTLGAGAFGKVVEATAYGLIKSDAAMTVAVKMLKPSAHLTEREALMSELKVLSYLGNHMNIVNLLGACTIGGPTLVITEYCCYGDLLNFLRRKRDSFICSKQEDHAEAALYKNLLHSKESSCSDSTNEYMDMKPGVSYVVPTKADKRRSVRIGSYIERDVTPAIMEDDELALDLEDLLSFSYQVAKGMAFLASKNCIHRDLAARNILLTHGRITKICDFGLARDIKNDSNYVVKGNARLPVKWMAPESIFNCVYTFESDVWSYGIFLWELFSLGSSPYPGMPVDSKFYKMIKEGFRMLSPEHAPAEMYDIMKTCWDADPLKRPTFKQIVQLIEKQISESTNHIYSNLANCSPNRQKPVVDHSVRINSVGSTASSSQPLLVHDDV
Protocol: To characterize the inhibitory activity of FPL-62064 against Kit kinase, the drug was tested using Millipore KinaseProfiler radiometric-based filtration binding assay (EMD Millipore Corporation, Billerica, Mass.). In a final reaction volume of 25 μL, Kit (human) (5-10 mU) was incubated with 8 mM MOPS pH 7.0, 0.2 mM EDTA, 10 mM MnCl2, 0.1 mg/mL poly(Glu, Tyr) 4:1, 10 mM MgAcetate and 10 μM [γ^33P-ATP] (specific activity approx. 500 cpm/pmol). The reaction was initiated by the addition of the MgATP mix. After incubation for 40 minutes at room temperature, the reaction was stopped by the addition of 5 μL of a 3% phosphoric acid solution. 10 μL of the reaction was then spotted onto a Filtermat A and washed three times for 5 minutes in 75 mM phosphoric acid and once in methanol prior to drying and scintillation counting.

[5] = system: human skin; test: Safety and adverse events at application sites in the pilot clinical study; assay type: in vivo; conditions: topical twice daily, any time point during the study
Protocol: Lower back of each subject was used as the test area. Five identically sized application sites (square 3 cm by 3 cm) were marked on the skin of each subject and labeled A through E. 0.1 gram of each material, as measured by extrusion from a syringe, was applied on the appropriate site, using a gloved finger, by a trained technician, guided by markings on the skin and the application site diagram. The application was carried out in an accredited outpatient facility twice daily (morning and afternoon/evening), 6 days per week (with no treatments on Sunday). The procedure was continued in the same manner for the duration of the study. Subjects 2, 3 and 4 entered the study on day 1 (Friday) and each received 48 treatments (no subject missed any of the treatments). Subjects 8, 9, and 10 entered the study on day 4 (Monday) and each received 44 treatments. No subject missed any of the treatments.
In all cases, the condition of the sites treated with Formulation E improved upon termination of the treatment.

[6] = system: immune-complex-induced peritoneal inflammation; conditions: mouse, intraperitoneal, fine suspension in saline; cited from earlier work
[7] = molecular target: T3, 5-LO in intact RBL-1 cells (Rattus norvegicus, UniProt P12527); conditions: cited from earlier work
T3 construct: endogenous in cells; host or cells: RBL-1 cells
T3 sequence (P12527 1-673): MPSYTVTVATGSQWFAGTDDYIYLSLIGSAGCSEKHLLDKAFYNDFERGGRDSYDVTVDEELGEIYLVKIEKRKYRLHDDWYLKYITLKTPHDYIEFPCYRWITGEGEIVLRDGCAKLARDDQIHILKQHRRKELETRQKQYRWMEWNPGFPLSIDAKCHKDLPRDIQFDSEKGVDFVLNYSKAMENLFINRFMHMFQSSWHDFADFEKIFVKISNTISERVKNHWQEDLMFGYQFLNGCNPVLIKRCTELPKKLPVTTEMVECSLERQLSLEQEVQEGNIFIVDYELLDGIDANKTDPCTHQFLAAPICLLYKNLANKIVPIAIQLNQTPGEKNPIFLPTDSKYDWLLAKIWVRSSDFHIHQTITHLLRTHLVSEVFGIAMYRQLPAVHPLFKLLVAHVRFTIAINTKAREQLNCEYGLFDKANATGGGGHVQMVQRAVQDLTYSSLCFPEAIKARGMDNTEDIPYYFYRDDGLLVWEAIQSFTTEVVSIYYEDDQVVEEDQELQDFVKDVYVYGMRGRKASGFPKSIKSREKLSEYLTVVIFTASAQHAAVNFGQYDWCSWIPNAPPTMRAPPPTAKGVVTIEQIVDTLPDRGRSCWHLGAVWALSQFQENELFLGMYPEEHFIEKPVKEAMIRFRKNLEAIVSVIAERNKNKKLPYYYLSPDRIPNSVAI

[8] = system: darker human skin (pigmentation); test: Single-blind pilot clinical study of skin lightening on darker human skin; assay type: in vivo; conditions: day 29 / end of study, significance at p<0.05
Protocol: The study protocol and informed consent form were reviewed and approved by the Guangzhou Institutional Review Board (Guangzhou, China) prior to the initiation of the study. […]
The following test formulations were prepared and pH of each formulation was measured, as shown below. […]
Lower back of each subject was used as the test area. Five identically sized application sites (square 3 cm by 3 cm) were marked on the skin of each subject and labeled A through E. 0.1 gram of each material, as measured by extrusion from a syringe, was applied on the appropriate site, using a gloved finger, by a trained technician, guided by markings on the skin and the application site diagram. […]
L value (brightness) reading was taken in duplicate with the spectrophotometer CM-2600d (Konica Minolta, Osaka, Japan). The melanin (M) index reading was taken in duplicate with a Mexameter® MX18 (Courage & Khazaka, Cologne, Germany). […]
Statistical analysis was performed using the computer program SigmaStat 11 (Systat Software Inc., Chicago, Ill., USA) on a Microsoft Windows computer. For all data (Visual Scoring (VS), L value (brightness) (L), and MeIanin Index (M)), the baseline readings were subtracted prior to analysis. […]

[9] = system: UV irradiation-induced erythema; conditions: guinea pig; cited from earlier work
[10] = molecular target: T4, Kit autophosphorylation in M07e cells (Homo sapiens, UniProt P10721); test: Cellular Kit phosphorylation assay (ProQinase sandwich ELISA) in M07e cells; assay type: cell-based
T4 construct: expressing endogenously a high level of wild-type Kit; host or cells: M07e (human acute megakaryoblastic leukemia)
T4 sequence (P10721 26-976): as the sequence (P10721 26-976) above
T4 sequence (P21583 26-190 partner limits assumed): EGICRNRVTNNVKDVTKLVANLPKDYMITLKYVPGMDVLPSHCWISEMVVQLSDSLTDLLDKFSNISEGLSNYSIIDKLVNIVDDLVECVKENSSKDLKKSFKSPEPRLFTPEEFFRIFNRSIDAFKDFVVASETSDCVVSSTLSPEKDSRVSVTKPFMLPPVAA
Protocol: The human acute megakaryoblastic leukemia cell line M07e expressing endogenously a high level of wild-type Kit was used in the cellular Kit phosphorylation assay. Stimulation of these cells with human Kit ligand results in receptor tyrosine autophosphorylation. M07e cells were plated in RPMI supplemented with 20% FCS and 10 ng/ml GM-CSF in multiwell cell culture plates. After serum- and growth factor-starvation overnight, cells were incubated with test compounds in serum-free medium. Pre-diluted test samples were added 1:100 to the cell culture medium resulting in a final DMSO concentration of 1%. After 90 minute incubation at 37° C., cells were stimulated with 100 ng/ml Kit ligand for 3 minutes. Cells treated with staurosporine were defined as Low control, and cells treated with solvent alone were defined as High control. Test sample-treated cells, as well as High and Low control, were stimulated in identical manner. Quantification of substrate phosphorylation was assessed in 96 well plates via sandwich ELISA using a substrate specific capture antibody and an anti-phosphotyrosine detection antibody. Raw data were converted into percent substrate phosphorylation relative to High control, set to 100%. […] The equation is a four-parameter logistic equation.

[11] = system: carrageenin foot edema; conditions: rats, oral route, doses up to 200 mg/kg; cited from earlier work
[12] = system: rabbit skin edema; conditions: co-injected with arachidonic acid; cited from earlier work
[13] = humans, preliminary data; cited from earlier work
[14] = molecular target: prostaglandin synthetase (PGS); conditions: in vitro assays; cited from earlier work
[15] = system: arachidonic acid-induced ear edema; conditions: mouse ear; cited from earlier work

SMILES: COc1ccc(Nc2ccn(-c3ccccc3)n2)cc1 [FPL-62064, N-(4-methoxyphenyl)-1-phenyl-1H-pyrazol-3-amine]
- topical bioavailability ([1]; topical): topically bioavailable
- metabolism ([1]; upon intravenous administration): rapidly and extensively metabolized
- IC50 [2]: 3.6 µM
- IC50 [3]: 3.5 to 11.5 µM
- IC50 ([4]; 10 μM ATP): 6.9 µM and 6.89 µM
- IC50 ([4]; same value in mass units): 7.54 µM
- adverse events, sensitivity or irritation at treated sites [5]: well tolerated
- activity against immune-complex-induced peritoneal inflammation [6]: demonstrated local activity
- IC50 [7]: 31 µM
- change of the melanin index (M) from baseline compared to the control site (Formulation D, vehicle) [8]: statistically significant decrease
- UV irradiation-induced erythema and prostaglandin E2 formation [9]: inhibited
- IC50 ([10]; 90 min incubation, 100 ng/ml Kit ligand): 1.2 µM
- IC50 ([10]; same value in mass units): 1.13 µM
- activity against carrageenin foot edema [11]: inactive
- edema and eicosanoid formation [12]: inhibited
- safety and tolerability of topical application [13]: safe and well tolerated
- IC50 [14]: 3.1 µM
- edema formation and eicosanoid production induced by arachidonic acid [15]: inhibited
